In patent publication US20250099580A1, “TREATMENT OF GASTRIC CANCER AND/OR GASTROESOPHAGEAL JUNCTION CANCER” (AstraZeneca AB, priority 2023, published 2025):

Legend:
[1] = Phase III study, interim analysis: adverse events (safety analysis set); type: in vivo
Procedure: (§1) A randomized, double-blind, placebo-controlled, multicenter, global Phase III study is conducted to assess the efficacy and safety of neoadjuvant-adjuvant durvalumab in combination with FLOT chemotherapy followed by adjuvant durvalumab monotherapy in patients with resectable GC/GEJC (i.e., radical-surgery eligible; >T2 N0-3 M0 or T0-4 N1-3 M0, per AJCC 8th edition). Patients were randomized in a 1:1 ratio to each of the following treatment arms (see FIGS. 1A and 1B): • Treatment Arm A: durvalumab 1500 mg on Day 1+FLOT on Days 1 and 15 of Q4W, both agents being adminstered for 4 cycles (2 cycles neoadjuvant+2 cycles adjuvant) followed by durvalumab 1500 mg on Day 1 Q4W for 10 additional cycles. • Treatment Arm B: placebo on Day 1+FLOT on Days 1 and 15 of Q4W, both agents being adminstered for 4 cycles (2 cycles neoadjuvant+2 cycles adjuvant) followed by placebo on Day 1 Q4W for 10 additional cycles.
An adverse event (AE) can therefore be any unfavorable and unintended sign (e.g., an abnormal laboratory finding), symptom (for example nausea, chest pain), or disease temporally associated with the use of a medicinal product, whether or not considered related to the medicinal product. The term AE is used to include both serious and non-serious AEs and can include a deterioration of a pre-existing medical occurrence. An AE may occur at any time, including run-in or washout periods, even if no study intervention has been administered.
Definitions of serious adverse event: A serious adverse event is an AE occurring during any study phase (i.e., run-in, treatment, washout, follow-up), that fulfils one or more of the following criteria: results in death, is immediately life-threatening, requires in-patient hospitalization or prolongation of existing hospitalization, results in persistent or significant disability or incapacity, is a congenital abnormality or birth defect, or is an important medical event that may jeopardize the patient or may require medical treatment to prevent one of the outcomes listed above.
Adverse events are coded using the most recent version of the Medical Dictionary for Regulatory Activities (MedDRA). AEs are presented for each treatment group by SOC and/or PT, covering number and percentage of subjects reporting at least one event and number of events where appropriate. […]
Safety and tolerability are assessed in terms of AEs (including SAEs), deaths, laboratory data, vital signs, ECGs, and exposure. […]
Interim analysis was conducted after all randomised patients underwent or were precluded from surgery. Superiority of pCR rate (α=0.1% [2-sided]) by central review was assessed. Surgical and safety outcomes were also assessed.

[2] = test system: resectable gastric and gastroesophageal junction cancer (GC/GEJC); assay: Phase III study, interim analysis: pathological response (pCR, pnCR, downstaging) by pathology review after neoadjuvant therapy; type: in vivo, human
Text: As used herein, the terms “combined pathological complete response/near-complete pathological response” or “pnCR” refer to the proportion of patients who only have single cells or rare small groups of cancer cells present in the resected specimens as determined by pathology review. […] The Ryan Scoring system is based on the ratio of residual cancer cells to the amount of fibrosis, and ranges from 1 (complete or near-complete response) to 3 (poor or not response to neoadjuvant therapy). As used herein, the terms “pathological complete response” or “pathological CR” or “pCR” refer to the proportion of patients who have no residual viable tumor in the resected specimens and as determined by pathology review. As used herein, the terms “event-free survival” or “EFS” refer the time from the date of randomization until the date of one of the following events, whichever occurs first: (1) first documented progression that precludes surgery or requires non-protocol therapy; (2) first evidence of documented recurrence of disease post-surgery in patients who had margin-negative surgery (R0); (3) first evidence of documented progression of disease post-surgery in patients with margin-positive surgery (R1/R2); or (4) death due to any cause. EFS is determined according to RECIST 1.1 per BICR assessment and/or locally by pathology testing.
as §1
Patients were stratified according to geographic region (Asia versus non-Asia), clinical lymph node status (positive versus negative), and PD-L1 expression status (TIP/TAP≥1% versus TIP/TAP<1%). Patients provided a tumor tissue sample at screening (newly acquired or archived sample <3 months old) to determine PD-L1 status using the Tumor and/or Immune Cell Positivity (TIP) scoring method (defined as proportion of tumor area occupied by tumor cells with membrane and immune cells with cytoplasmic/membrane PD-L1 staining at any intensity) by the Ventana SP263 PD-L1 immunohistochemistry (IHC) assay for stratification in which: TIP/TAP≥1% PD-L1 is considered as high, and TIP/TAP<1% PD-L1 is considered low.
Neoadjuvant therapy begins following completion of the screening period/randomization, and patients undergo resection surgery about 4 to about 8 weeks after the last dose of neoadjuvant therapy (surgery >8 weeks after the last dose of neoadjuvant therapy may be permitted). Adjuvant therapy begins about 4 weeks to about 12 weeks post-surgery (based on the patient's recovery period). In this Phase III study, the administration of durvalumab and a FLOT chemotherapy prior to surgery, followed by further administration of durvalumab and a FLOT chemotherapy after surgery, was investigated to determine if this therapy regimen can improve activity and therefore long-term clinical outcomes for patients with resectable GC and/or resectable GEJC.
Eligible patients received 1500 mg durvalumab or placebo on Day 1 in combination with FLOT chemotherapy on Days 1 and 15 for 2 cycles Q4W as neoadjuvant therapy. […]

[3] = test system: resectable gastric and gastroesophageal junction cancer (GC/GEJC); assay: Phase III study, interim analysis: surgery rate and R0 resection rate; type: in vivo, human
Procedure: A randomized, double-blind, placebo-controlled, multicenter, global Phase III study is conducted to assess the efficacy and safety of neoadjuvant-adjuvant durvalumab in combination with FLOT chemotherapy followed by adjuvant durvalumab monotherapy in patients with resectable GC/GEJC (i.e., radical-surgery eligible; >T2 N0-3 M0 or T0-4 N1-3 M0, per AJCC 8th edition). Patients were randomized in a 1:1 ratio to each of the following treatment arms (see FIGS. 1A and 1B): • Treatment Arm A: durvalumab 1500 mg on Day 1+FLOT on Days 1 and 15 of Q4W, both agents being adminstered for 4 cycles (2 cycles neoadjuvant+2 cycles adjuvant) followed by durvalumab 1500 mg on Day 1 Q4W for 10 additional cycles. • Treatment Arm B: placebo on Day 1+FLOT on Days 1 and 15 of Q4W, both agents being adminstered for 4 cycles (2 cycles neoadjuvant+2 cycles adjuvant) followed by placebo on Day 1 Q4W for 10 additional cycles. Surgical eligibility was assessed after neoadjuvant treatment and within 28 days prior to surgery. Surgery performed was gastrectomy or gastroesophagectomy with at least D1 lymphadenectomy (D2 lymphadenectomy recommended), as determined by the attending surgeon based on the intraoperative findings. Surgery was no earlier than 4 weeks but within 8 weeks after the last dose of neoadjuvant therapy. Patients must have recovered from all acute, reversible toxic effects from FLOT chemotherapy (excluding alopecia) and durvalumab (or placebo) that could potentially adversely impact the surgical procedure. Radical gastrectomy or gastroesophagectomy was performed for patients who met the surgery eligibility criteria by a board certified surgeon no earlier than 28 days (4 weeks) but within 56 days (8 weeks) after the last dose of neoadjuvant therapy. (Surgery >8 weeks after the last dose of neoadjuvant therapy may be permitted in consultation with the Sponsor). The recommendations of ESMO and NCCN for the resectability of GC/GEJC was followed. The surgery was be performed by a board certified gastric surgeon, who should perform gastric surgery as a prominent part of his/her practice. Surgery rate is analyzed using the same methodology as described for the pCR rate. R0 resection (margin-negative resection) rate is analyzed using the same methodology as described for the pCR rate. Surgery status is determined by a patient receiving gastrectomy or gastroesophagectomy (yes/no). Surgery rate is defined as the proportion of patients who undergo gastrectomy or gastroesophagectomy. R0 resection is determined by pathology review. R0 resection rate is defined as the proportion of patients who have a confirmed complete resection (i.e., received margin-negative surgery [R]) as assessed by pathology review. Interim analysis was conducted after all randomised patients underwent or were precluded from surgery. Superiority of pCR rate (α=0.1% [2-sided]) by central review was assessed. Surgical and safety outcomes were also assessed.

[4] = target: PD-L1 (Homo sapiens, UniProt Q9NZQ7); conditions: in vitro; cited from earlier work
[5] = test system: tumor growth in a xenograft model; conditions: T-cell dependent mechanism; cited from earlier work
[6] = Central Review (BICR), n = 474 per arm
[7] = D + FLOT versus P + FLOT, p < 0.00001
[8] = Investigator Assessment, n = 474 per arm
[9] = central assessment, n = 474 per arm

PD-L1, sequence (Q9NZQ7 19-290): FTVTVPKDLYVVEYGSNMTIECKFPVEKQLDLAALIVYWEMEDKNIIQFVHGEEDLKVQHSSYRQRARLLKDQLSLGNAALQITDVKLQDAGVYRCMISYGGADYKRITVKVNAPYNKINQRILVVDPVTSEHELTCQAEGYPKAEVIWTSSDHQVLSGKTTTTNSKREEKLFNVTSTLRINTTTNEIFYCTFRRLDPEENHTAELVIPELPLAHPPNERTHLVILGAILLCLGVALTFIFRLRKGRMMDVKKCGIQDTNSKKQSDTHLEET

Q: For “D + FLOT: durvalumab 1500 mg Day 1 Q4W plus FLOT (5-FU + leucovorin + oxaliplatin + docetaxel) Days 1 and 15, neoadjuvant-adjuvant, then durvalumab monotherapy”, which “AE Grade 3/4, (%)” value ([1]; safety analysis set) is on record?
A: (68.6) %

Q: What about the “Grade 3/4 TRAE, (%)” value ([1]; safety analysis set) of the same substance?
A: (57.9) %

Q: And the “TRAE (treatment-related AE), (%)” value ([1]; safety analysis set)?
A: (95.2) %

Q: And the “AE, (%)” value ([1]; safety analysis set: D + FLOT n = 475, P + FLOT n = 469)?
A: (98.9) %

Q: What about the “Combined pCR/near-complete pathological response (pnCR) rate” value [2] of the same substance?
A: 27%

Q: And the “increase in major response versus Placebo+FLOT chemotherapy alone” value [2]?
A: 12.4%

Q: What about the “pCR Difference in response rate (%)” value ([2]; Central Review (BICR), Durva + FLOT − Placebo + FLOT) of the same substance?
A: 12.0%

Q: And the “pCR N Responses” value [2, 6]?
A: 91

Q: What about the “pCR Response rate %” value [2, 6] of the same substance?
A: 19.2%

Q: What about the “pCR Odds ratio” value ([2]; Central Review (BICR), stratified Cochran-Mantel-Haenszel test, 2-sided p <0.00001) of the same substance?
A: 3.08

Q: What about the “pCR, OR (95% CI)” value [2, 7] of the same substance?
A: 3.08 (2.03-4.67); p < 0.00001

Q: And the “pCR/pnCR, OR (95% CI)” value [2, 7]?
A: 2.19 (1.58-3.04); p < 0.00001

Q: And the “Major pathological response, Difference in response rate (%)” value ([2]; Durva + FLOT − Placebo + FLOT)?
A: 12.4%

Q: What about the “pCR (BICR) by subgroups” value ([2]; FIG. 2, odds ratio>1 favours durvalumab) of the same substance?
A: consistent across evaluable subgroups

Q: And the “major pathological response (complete or near-complete response BICR) by subgroups” value ([2]; FIG. 3, odds ratio>1 favours durvalumab)?
A: consistent across evaluable subgroups

Q: What about the “pCR Difference in response rate (%)” value ([2]; Investigator Assessment, Durva + FLOT − Placebo + FLOT) of the same substance?
A: 13.3%

Q: And the “pCR N Responses” value [2, 8]?
A: 103

Q: What about the “pCR Response rate %” value [2, 8] of the same substance?
A: 21.7%

Q: And the “pCR Odds ratio” value ([2]; Investigator Assessment, stratified Cochran-Mantel-Haenszel test, 2-sided p <0.00001)?
A: 3.03

Q: And the “Downstaging, pN0” value ([2]; by central review)?
A: 47%

Q: What about the “Downstaging, pT0” value ([2]; by central review) of the same substance?
A: 21%

Q: And the “Major pathological response (complete or near-complete) N Responses” value [2, 9]?
A: 127

Q: What about the “Major pathological response rate %” value [2, 9] of the same substance?
A: 26.8%

Q: What about the pCR rate ([2]; central review, interim analysis) of the same substance?
A: 19%

Q: And the “pCR/pnCR, %” value ([2]; n = 474 per arm)?
A: 26.8%

Q: And the “pCR, %” value ([2]; n = 474 per arm, interim analysis)?
A: 19.2%

Q: What about the “Major pathological response, Odds ratio” value ([2]; stratified Cochran-Mantel-Haenszel test, 2-sided p <0.00001) of the same substance?
A: 2.19

Q: And the “increase in pCR rate from addition of durvalumab to FLOT” value ([2]; versus Placebo)?
A: 12%

Q: And the “pCR odds ratio [OR]” value ([2]; versus Placebo, p<0.00001)?
A: 3.08

Q: And the Surgery rate [3]?
A: 87%

Q: And the “Surgery performed, OR (95% CI)” value ([3]; D + FLOT versus P + FLOT)?
A: 1.23 (0.85-1.76)

Q: What about the “R0 resection, OR (95% CI)” value ([3]; D + FLOT versus P + FLOT, in pts with surgery) of the same substance?
A: 1.00 (0.68-1.48)

Q: And the R0 resection rate ([3]; in patients who underwent surgery)?
A: 86%

Q: What about the “R0 resection, %” value ([3]; in pts with surgery: D + FLOT n = 430, P + FLOT n = 422) of the same substance?
A: 85.8%

Q: What about the “Surgery performed, %” value ([3]; n = 474 per arm) of the same substance?
A: 86.7%

Q: With “Durvalumab: antibody that selectively binds PD-L1 and blocks the binding of PD-L1 to the PD-1 and CD80 receptors” as the substance, how does the “effect on PD-L1-mediated suppression of human T-cell activation” value [4] read?
A: relieve PD-L1-mediated suppression of human T-cell activation in vitro

Q: And the tumor growth [5]?
A: inhibits tumor growth
